Here are results for 1 compound from US20080171659A1, “Insecticidally Coated Fertilizer Solids” (priority 2007, published 2008).

The series is classed as physicochemical. The text has this: U.S. Pat. No. 5,783,203 mentions acetone as a solvent for imidacloprid. […] Using a 6 wt % imidacloprid in acetone would mean applying 1.67 wt % of the solution on the fertilizer based on the combined weight of the fertilizer and the solution to achieve a product with 0.10 wt % imidacloprid. This would be very difficult to achieve a dry product. Fertilizer products with 0.2 wt % and 0.5 wt % imidacloprid would require 3.33 wt % and 8.33 wt % respectively of the imidacloprid solution absorbed onto the fertilizer; concentrations which are not likely feasible in acetone. In addition, acetone is volatile and highly flammable which would make processing very difficult and expensive.

With `O=[N+]([O-])NC1=NCCN1Cc1ccc(Cl)nc1` [imidacloprid], the solubility entry was “less than 7 wt %”.
